The compounds below were run on HCT116 MTAP-deleted cell lines (assay: Cell viability assay (CellTiter-Glo, 7 days), HCT116 MTAP-deleted). Details: Homo sapiens, HCT-116; cell viability assay, HCT116 MTAP-deleted; class symbols; read-out: CC50.
Format: cell-based
Summary of the method: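 Each PRMT5 inhibitor was tested as a dose response alongside tool compounds on the same plate. Incubation ran 7 days at 37 °C under 5% CO2, after which CellTiter-Glo luminescence was recorded and CC50 calculated.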
`Cc1ncn2c1c(N)nc1cnc(C(=O)N3CC[C@H]4C[C@@H]3c3cc(F)c(C(F)(F)F)cc3O4)cc12` [Ff-635, (4-amino-3-methylimidazo[1,5-a]pyrido[3,4-e]pyrazin-8-yl)((2S,6R)-8-fluoro-9-(trifluoromethyl)-3,4-dihydro-2H-2,6-methanobenzo[b][1,5]oxazocin-5(6H)-yl)methanone] showed a CC50 of under 100 nM.
`CN(C(=O)c1cc2c(cc1Cl)nc(N)c1cncn12)[C@@H]1COc2cc([C@@H]3C[C@H]3C#N)c(F)cc21` [Ff-443, Trans-4-amino-7-chloro-N-[(3S)-6-(2-cyanocyclopropyl)-5-fluoro-2,3-dihydrobenzofuran-3-yl]-N-methyl-imidazo[1,5-a]quinoxaline-8-carboxamide] was tested, and the CC50 was under 100 nM.
In the case of `CN(C(=O)c1cc2c(cc1F)nc(N)c1cncn12)[C@@H]1CCc2cc(C(F)(F)F)ccc21` (single isomer, unassigned) [Ff-398], the CC50 is reported as under 100 nM.
In the case of `CN(C(=O)c1cc2c(cc1F)nc(N)c1cncn12)[C@@H]1COc2cc(OC(F)F)cc(F)c21` [Ff-585], the CC50 is reported as under 100 nM.
With `CN(C(=O)c1cc2c(cc1F)nc(N)c1cncn12)[C@@H]1COc2cc(Cl)c(Cl)cc21` (single isomer, unassigned) [Ff-605] the CC50 was under 100 nM.
With `Cc1ncn2c1c(N)nc1ccc(C(=O)N3C[C@H](C)O[C@@H]4Cc5cc(OC(F)(F)F)ccc5[C@@H]43)cc12` (single isomer, unassigned) [Fg-23] the CC50 was under 100 nM.
`Cc1ncn2c1c(N)nc1cnc(C(=O)N3CC[C@H]4C[C@@H]3c3ccc(C(F)(F)F)cc3O4)cc12` [Fg-64, (4-amino-3-methylimidazo[1,5-a]pyrido[3,4-e]pyrazin-8-yl)((2S,6R)-9-(trifluoromethyl)-3,4-dihydro-2H-2,6-methanobenzo[b][1,5]oxazocin-5(6H)-yl)methanone] was tested, and the CC50 was under 100 nM.
Compound `Cc1ncn2c1c(N)nc1cnc(C(=O)N3[C@@H]4c5ccc(C(F)(F)F)cc5O[C@@H]4CC[C@@H]3C)cc12` (single isomer, unassigned) [Ff-612] has a CC50 of 100 to 1000 nM.
`Nc1nc2cc(F)c(C(=O)N3CCC[C@@H]4Oc5cc(OC(F)(F)F)ccc5[C@@H]43)cc2n2cncc12` (single isomer, unassigned) [Ff-395] showed a CC50 of under 100 nM.
`Cc1ncc2c(N)nc3ccc(C(=O)N4C[C@@H](C)O[C@@H]5Cc6cc(C(F)(F)F)ccc6[C@@H]54)cc3n12` [Ff-631, (4-amino-1-methylimidazo[1,5-a]quinoxalin-8-yl)((2R,4aS,9aR)-2-methyl-7-(trifluoromethyl)-2,3,9,9a-tetrahydroindeno[2,1-b][1,4]oxazin-4(4aH)-yl)methanone] was tested, and the CC50 was 100 to 1000 nM.
For `CCc1cc2nc(N)c3cncn3c2cc1C(=O)N(C)[C@@H]1COc2cc(C(F)(F)F)ccc21` [Fg-52, (S)-4-amino-7-ethyl-N-methyl-N-(6-(trifluoromethyl)-2,3-dihydrobenzofuran-3-yl)imidazo[1,5-a]quinoxaline-8-carboxamide], the CC50 was under 100 nM.
`Nc1nc2cc(F)c(C(=O)N3CCOC[C@H]3c3ccc(OC(F)(F)F)cc3)cc2n2cncc12` (single isomer, unassigned) [Ff-556] was tested, and the CC50 was 100 to 1000 nM.
For `[2H]C([2H])([2H])[C@@H]1CN(C(=O)c2cc3c(cc2F)nc(N)c2cncn23)[C@H]2c3ccc(C(F)(F)F)cc3C[C@H]2O1` (single isomer, unassigned) [Ff-638], the CC50 was under 100 nM.

Same assay, conditions: Homo sapiens, HCT-116; cell viability, HCT116 MTAP-deleted; class symbols; read-out: CC50
`Cc1nc2cc([C@H]3CC[C@H](C)CN3C(=O)c3ccc4nc(N)c5cnc(C)n5c4c3)ccc2s1` [Ff-127] showed a CC50 of 100 to 1000 nM.
`COc1cc2c(cc1F)[C@H]1[C@H](CCCN1C(=O)c1cc3c(cc1F)nc(N)c1cncn13)OC2` (racemic) [Ff-300, Rac-(4-amino-7-fluoroimidazo[1,5-a]quinoxalin-8-yl)((4aS,10bS)-9-fluoro-8-methoxy-2,3,4,4a,6,10b-hexahydro-1H-isochromeno[4,3-b]pyridin-1-yl)methanone] showed a CC50 of under 100 nM.
Work on `C[C@H]1CN(C(=O)c2cc3c(cn2)nc(N)c2cncn23)[C@H]2c3cc(F)c(C(F)(F)F)cc3C[C@H]2O1` [Ff-247, (4-aminoimidazo[1,5-a]pyrido[3,4-e]pyrazin-8-yl)((2S,4aS,9aR)-6-fluoro-2-methyl-7-(trifluoromethyl)-2,3,9,9a-tetrahydroindeno[2,1-b][1,4]oxazin-4(4aH)-yl)methanone] yielded a CC50 of under 100 nM.
`CC(C)N(Cc1ccc(-c2cnn(-c3ccccn3)c2)cc1F)C(=O)c1cc2c(cc1F)nc(N)c1cncn12` [Ff-147, 4-amino-7-fluoro-N-(2-fluoro-4-(1-(pyridin-2-yl)-1H-pyrazol-4-yl)benzyl)-N-isopropylimidazo[1,5-a]quinoxaline-8-carboxamide] was tested, and the CC50 was under 100 nM.
Work on `CN(C(=O)c1cc2c(cc1F)nc(N)c1cncn12)C1COCc2cc(C(F)(F)F)ccc21` (stereo not drawn) [Ff-39, 4-amino-7-fluoro-N-methyl-N-(7-(trifluoromethyl)isochroman-4-yl)imidazo[1,5-a]quinoxaline-8-carboxamide] yielded a CC50 of under 100 nM.
With `Cn1cc(N(Cc2ncc(C(F)(F)F)cc2F)C(=O)c2cc3c(cc2F)nc(N)c2cncn23)cn1` [Ff-290, 4-amino-7-fluoro-N-((3-fluoro-5-(trifluoromethyl)pyridin-2-yl)methyl)-N-(1-methyl-1H-pyrazol-4-yl)imidazo[1,5-a]quinoxaline-8-carboxamide] the CC50 was under 100 nM.
`C[C@H]1CN(C(=O)c2cc3c(cc2F)nc(N)c2cncn23)[C@H]2c3ccc(Br)cc3C[C@H]2O1` [Ff-93, (4-amino-7-fluoroimidazo[1,5-a]quinoxalin-8-yl)((2S,4aS,9aR)-7-bromo-2-methyl-2,3,9,9a-tetrahydroindeno[2,1-b][1,4]oxazin-4(4aH)-yl)methanone] showed a CC50 of under 100 nM.
In the case of `CS(=O)(=O)N1CCN(C(=O)c2cc3c(cc2F)nc(N)c2cncn23)C(c2ccc(C(F)(F)F)cn2)C1` (stereo not drawn) [Ff-135, (4-amino-7-fluoroimidazo[1,5-a]quinoxalin-8-yl)(4-(methylsulfonyl)-2-(5-(trifluoromethyl)pyridin-2-yl)piperazin-1-yl)methanone], the CC50 is reported as 100 to 1000 nM.
`Nc1nc2cnc(C(=O)N3CCO[C@@H]4Cc5cc(OC(F)(F)F)ccc5[C@@H]43)cc2n2cncc12` [Ff-182, (4-aminoimidazo[1,5-a]pyrido[3,4-e]pyrazin-8-yl)((4aS,9aR)-7-(trifluoromethoxy)-2,3,9,9a-tetrahydroindeno[2,1-b][1,4]oxazin-4(4aH)-yl)methanone] gave a CC50 of under 100 nM.
`Cc1ncn2c1c(N)nc1cc(F)c(C(=O)N3CCC[C@@H]4Oc5nc(C(F)(F)F)ccc5[C@@H]43)cc12` [Ff-362, (4-amino-7-fluoro-3-methylimidazo[1,5-a]quinoxalin-8-yl)((4aS,9bS)-7-(trifluoromethyl)-3,4,4a,9b-tetrahydrofuro[2,3-b:4,5-b′]dipyridin-1(2H)-yl)methanone] gave a CC50 of under 100 nM.
`Nc1nc2cc(F)c(C(=O)N3CCOC[C@@H]3c3ccc(C(F)(F)F)cc3)cc2n2cncc12` [Ff-38, (S)-(4-amino-7-fluoroimidazo[1,5-a]quinoxalin-8-yl)(3-(4-(trifluoromethyl)phenyl)morpholino)methanone] showed a CC50 of under 100 nM.
Work on `Nc1nc2cc(F)c(C(=O)N3CCC[C@@H]4Oc5cc(F)c(F)cc5[C@@H]43)cc2n2cncc12` (racemic) [Ff-101, Rac-(4-amino-7-fluoroimidazo[1,5-a]quinoxalin-8-yl)((4aS,9bS)-7,8-difluoro-3,4,4a,9b-tetrahydrobenzofuro[3,2-b]pyridin-1(2H)-yl)methanone] yielded a CC50 of 100 to 1000 nM.
Work on `CN(C(=O)c1cc2c(cc1Cl)nc(N)c1cncn12)[C@@H]1COCc2nc(C(F)(F)F)ccc21` [Ff-308, (S)-4-amino-7-chloro-N-methyl-N-(2-(trifluoromethyl)-5,8-dihydro-6H-pyrano[3,4-b]pyridin-5-yl)imidazo[1,5-a]quinoxaline-8-carboxamide] yielded a CC50 of under 100 nM.
`COc1ccc2c(c1F)CO[C@H]1CCCN(C(=O)c3cc4c(cc3F)nc(N)c3cncn34)[C@@H]21` (racemic) [Ff-299, Rac-(4-amino-7-fluoroimidazo[1,5-a]quinoxalin-8-yl)((4aS,10bS)-7-fluoro-8-methoxy-2,3,4,4a,6,10b-hexahydro-1H-isochromeno[4,3-b]pyridin-1-yl)methanone] was tested, and the CC50 was under 100 nM.
Work on `Nc1nc2ccc(C(=O)N3CCOC[C@@H]3c3ccc(C(F)(F)F)cc3)cc2n2cnc(F)c12` [Ff-103, (S)-(4-amino-3-fluoroimidazo[1,5-a]quinoxalin-8-yl)(3-(4-(trifluoromethyl)phenyl)morpholino)methanone] yielded a CC50 of 100 to 1000 nM.
`Nc1nc2cc(F)c(C(=O)N3CCC[C@@H]4Oc5cc(Cl)ccc5[C@@H]43)cc2n2cncc12` [Ff-260, (4-amino-7-fluoroimidazo[1,5-a]quinoxalin-8-yl)((4aS,9bS)-7-chloro-3,4,4a,9b-tetrahydrobenzofuro[3,2-b]pyridin-1(2H)-yl)methanone] was tested, and the CC50 was under 100 nM.
For `Nc1nc2cc(F)c(C(=O)N(Cc3ccc(C(F)(F)F)cc3F)c3cnn(C(F)F)c3)cc2n2cncc12` [Ff-291, 4-amino-N-(1-(difluoromethyl)-1H-pyrazol-4-yl)-7-fluoro-N-(2-fluoro-4-(trifluoromethyl)benzyl)imidazo[1,5-a]quinoxaline-8-carboxamide], the CC50 was under 100 nM.
`CC1(C)CN(C(=O)c2cc3c(cc2F)nc(N)c2cncn23)CC1c1ccccc1` (stereo not drawn) [Ff-2, (4-amino-7-fluoroimidazo[1,5-a]quinoxalin-8-yl)(3,3-dimethyl-4-phenylpyrrolidin-1-yl)methanone] gave a CC50 of 100 to 1000 nM.
In the case of `Cc1ncn2c1c(N)nc1cnc(C(=O)N3CCC[C@@H]4Oc5cc(C(F)(F)F)c(F)cc5[C@@H]43)cc12` [Ff-116, (4-amino-3-methylimidazo[1,5-a]pyrido[3,4-e]pyrazin-8-yl)((4aS,9bS)-8-fluoro-7-(trifluoromethyl)-3,4,4a,9b-tetrahydrobenzofuro[3,2-b]pyridin-1(2H)-yl)methanone], the CC50 is reported as under 100 nM.
`Nc1nc2cnc(C(=O)N3CCC[C@@H]4Oc5c(ccc(OC(F)(F)F)c5F)[C@@H]43)cc2n2cncc12` [Ff-336, (4-aminoimidazo[1,5-a]pyrido[3,4-e]pyrazin-8-yl)((4aS,9bS)-6-fluoro-7-(trifluoromethoxy)-3,4,4a,9b-tetrahydrobenzofuro[3,2-b]pyridin-1(2H)-yl)methanone] showed a CC50 of under 100 nM.

Source: patent US12448388B2, “PRMT5 inhibitors and uses thereof” (Gilead Sciences, Inc., priority 2023, dated 2025)
